Laboratory results as given in publication PMC8000395, “Effective Small Molecule Antibacterials from a Novel Anti-Protein Secretion Screen” (Microorganisms, 2021).

Columns and labels:
[1] = system: PhoA secretion in E. coli BW25113; assay: Lab-scale p-nitrophenyl PhoA secretion assay, BW25113; type: cell-based; conditions: Escherichia coli, read-out: PhoA secretion in vivo IC50, E. coli BW25113
HEK293T cells = conditions: 24 h; for Toxicity of Mammalian Cells (HEK293T) LD50: human
Procedure: Hek293T cells were harvested and diluted obtaining a cell suspension with a concentration of 200,000 cells/mL in complete growth medium (DMEM, 4.5 g/L d-glucose, pyruvate 1 mM, 0.075% bicarbonate and 10% Fetal Bovine serum). Of this cell suspension, 50 µL (10,000/well) was seeded in a 384 well culture plate (white polystyrene, tissue culture treated) and incubated at 37 °C-5% CO2 for 4 h in a moisturized incubator, which enables the cells to adhere. After the incubation, small chemical compounds were diluted in medium and 10 µL of a compound solution was added onto the cells, ending up with the required compound concentration. The cells were incubated for 24 h at 37 °C-5% CO2 in a moisturized incubator where after × µL medium was removed to equalize the liquid levels within one plate ending up with ±25 µL/well. The amount of remaining cells/well was determined with ATPlite^TM 1step (Perkin Elmer) Adenosine TriPhosphate (ATP) monitoring system, which is based on firefly luciferase.
The cytotoxicity was calculated by subtracting RLU (relative light units) obtained from the cells incubated with a compound from the RLUs obtained from cells in the presence of the vehicle.
The cytotoxic effect of a test compound was determined as:
Percent cell death = [1−((RLU determined for sample with test compound present—1) divided by (RLU determined in the presence of vehicle—1))] * 100.

SMILES	IC50 [1]	Human cell toxicity LD50 (HEK293T cells)	Toxicity of Mammalian Cells (HEK293T) LD50 (HEK293T cells)
O=C(/C=C/c1csnn1)c1ccccc1Cl [HSI#01]	8.13 µM	> 15 µM	6.7 µM
O=C(/C=C/c1csnn1)c1cc(Cl)ccc1Cl [HSI#05]	3.2 µM	> 15 µM	6.7 µM
O=C(/C=C/c1csnn1)c1cccc2ccccc12 [HSI#10]	24.9 µM	> 15 µM	6.7 µM
